Molecular target: T1, recombinant human SAE enzyme (Homo sapiens, UniProt Q9UBT2)
T1 sequence (Q9UBT2 1-640): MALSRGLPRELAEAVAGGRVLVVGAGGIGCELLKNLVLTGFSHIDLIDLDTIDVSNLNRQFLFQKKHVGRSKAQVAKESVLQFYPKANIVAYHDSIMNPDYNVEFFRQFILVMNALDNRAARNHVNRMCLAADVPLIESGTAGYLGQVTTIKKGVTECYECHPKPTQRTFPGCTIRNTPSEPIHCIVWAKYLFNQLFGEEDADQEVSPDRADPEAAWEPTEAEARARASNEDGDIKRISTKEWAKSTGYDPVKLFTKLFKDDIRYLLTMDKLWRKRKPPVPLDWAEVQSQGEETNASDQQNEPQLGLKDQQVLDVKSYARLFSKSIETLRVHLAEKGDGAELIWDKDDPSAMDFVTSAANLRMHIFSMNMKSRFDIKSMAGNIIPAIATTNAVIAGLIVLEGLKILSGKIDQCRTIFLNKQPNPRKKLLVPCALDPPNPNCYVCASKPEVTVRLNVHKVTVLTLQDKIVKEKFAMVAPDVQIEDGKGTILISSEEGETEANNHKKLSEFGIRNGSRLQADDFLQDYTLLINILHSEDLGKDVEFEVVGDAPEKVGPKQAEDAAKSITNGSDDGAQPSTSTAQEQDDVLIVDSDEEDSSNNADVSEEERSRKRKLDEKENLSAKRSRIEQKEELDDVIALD
T1 sequence (Q9UBE0 1-346 partner): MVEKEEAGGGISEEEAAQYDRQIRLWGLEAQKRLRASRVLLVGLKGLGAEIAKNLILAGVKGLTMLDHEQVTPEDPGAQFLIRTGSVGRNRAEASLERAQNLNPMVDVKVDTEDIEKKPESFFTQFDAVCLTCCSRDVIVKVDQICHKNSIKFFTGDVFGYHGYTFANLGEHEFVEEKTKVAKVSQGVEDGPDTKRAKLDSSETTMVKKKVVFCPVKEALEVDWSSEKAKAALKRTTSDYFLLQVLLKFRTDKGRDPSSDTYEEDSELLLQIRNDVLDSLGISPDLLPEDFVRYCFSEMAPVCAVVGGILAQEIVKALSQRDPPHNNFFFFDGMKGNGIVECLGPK
Experiment: SAE HTRF Enzyme Assay
Format: biochemical
Details: for IC50: class symbols A-C; for inhibition at 0.111 µM: compound concentration 0.111 μM, read-out: Percent Inhibition
Method in brief: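 Reaction with 0.11 nM recombinant human SAE, 0.5 μM ATP, 0.01 μM Ubc9-GST, 0.125 μM Sumo-Flag in HEPES pH 7.5, MgCl2, GSH, BSA, 105 min at 24 °C. Stopped with EDTA/KF buffer carrying Eu-anti-Flag and anti-GST-APC; HTRF read after 2 h; % inhibition or IC50.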

NS(=O)(=O)OC[C@H]1C[C@@H](Nc2ncncc2C(=O)c2ccn(Cc3cc4ccccc4o3)n2)C[C@@H]1O [Compound I-17, {(1R,2S,4R)-4-[(5-{[1-(1-benzofuran-2-ylmethyl)-1H-pyrazol-3-yl]carbonyl}pyrimidin-4-yl)amino]-2-hydroxycyclopentyl}methyl sulfamate]
IC50: < 10 nM
inhibition at 0.111 µM: 99%

NS(=O)(=O)OC[C@H]1C[C@@H](Nc2ncncc2C(=O)c2ccn(Cc3cccc(Br)c3)c2)[C@@H](F)[C@@H]1O [Compound I-312, {(1R,2R,3R,4R)-4-[(5-{[1-(3-bromobenzyl)-1H-pyrrol-3-yl]carbonyl}pyrimidin-4-yl)amino]-3-fluoro-2-hydroxycyclopentyl}methyl sulfamate]
IC50: < 10 nM
inhibition at 0.111 µM: 99%

NS(=O)(=O)OC[C@H]1C[C@@H](Nc2ncncc2C(=O)c2ccn(Cc3cccc(Cl)c3)n2)[C@@H](F)[C@@H]1O [Compound I-176, {(1R,2R,3R,4R)-4-[(5-{[1-(3-chlorobenzyl)-1H-pyrazol-3-yl]carbonyl}pyrimidin-4-yl)amino]-3-fluoro-2-hydroxycyclopentyl}methyl sulfamate]
IC50: < 10 nM
inhibition at 0.111 µM: 98%

CC(C)(O)C#CCn1ccc(C(=O)c2cncnc2N[C@@H]2C[C@H](COS(N)(=O)=O)[C@@H](O)C2)n1 [Compound I-154, {(1R,2S,4R)-2-hydroxy-4-[(5-{[1-(4-hydroxy-4-methylpent-2-yn-1-yl)-1H-pyrazol-3-yl]carbonyl}pyrimidin-4-yl)amino]cyclopentyl}methyl sulfamate]
IC50: 100 to 1000 nM
inhibition at 0.111 µM: 39%

NS(=O)(=O)OC[C@H]1C[C@@H](Nc2ncncc2C(=O)c2ccn(Cc3ccc(F)c(Br)c3)n2)[C@@H](F)[C@@H]1O [Compound I-92, {(1R,2R,3R,4R)-4-[(5-{[1-(3-bromo-4-fluorobenzyl)-1H-pyrazol-3-yl]carbonyl}pyrimidin-4-yl)amino]-3-fluoro-2-hydroxycyclopentyl}methyl sulfamate]
IC50: < 10 nM
inhibition at 0.111 µM: 99%

NS(=O)(=O)OC[C@H]1C[C@@H](Nc2ncncc2C(=O)c2ccn(Cc3ccc(Cl)s3)n2)C[C@@H]1O [Compound I-280, [(1R,2S,4R)-4-{[5-({1-[(5-chloro-2-thienyl)methyl]-1H-pyrazol-3-yl}carbonyl)pyrimidin-4-yl]amino}-2-hydroxycyclopentyl]methyl sulfamate]
IC50: < 10 nM
inhibition at 0.111 µM: 99%

NS(=O)(=O)OC[C@H]1C[C@@H](Nc2ncncc2C(=O)c2ccn(Cc3ccc(F)o3)c2)[C@@H](F)[C@@H]1O [Compound I-231, [(1R,2R,3R,4R)-3-fluoro-4-{[5-({1-[(5-fluoro-2-furyl)methyl]-1H-pyrrol-3-yl}carbonyl)pyrimidin-4-yl]amino}-2-hydroxycyclopentyl]methyl sulfamate]
IC50: < 10 nM
inhibition at 0.111 µM: 99%

COC(C)(C)C#CCn1ccc(C(=O)c2cncnc2N[C@@H]2C[C@H](COS(N)(=O)=O)[C@@H](O)[C@@H]2F)c1 [Compound I-75, {(1R,2R,3R,4R)-3-fluoro-2-hydroxy-4-[(5-{[1-(4-methoxy-4-methylpent-2-yn-1-yl)-1H-pyrrol-3-yl]carbonyl}pyrimidin-4-yl)amino]cyclopentyl}methyl sulfamate]
IC50: 10 to 100 nM
inhibition at 0.111 µM: 68%

NS(=O)(=O)OC[C@H]1C[C@@H](Nc2ncncc2C(=O)c2ccn(Cc3ccnc(C(F)(F)F)c3)n2)C[C@@H]1O [Compound I-53, [(1R,2S,4R)-2-hydroxy-4-({5-[(1-{[2-(trifluoromethyl)pyridin-4-yl]methyl}-1H-pyrazol-3-yl)carbonyl]pyrimidin-4-yl}amino)cyclopentyl]methyl sulfamate]
IC50: 10 to 100 nM
inhibition at 0.111 µM: 79%

NS(=O)(=O)OC[C@H]1C[C@@H](Nc2ncncc2C(=O)c2ccn(Cc3ccccc3)n2)[C@@H](O)[C@@H]1O [Compound I-135, [(1R,2R,3R,4R)-4-({5-[(1-Benzyl-1H-pyrazol-3-yl)carbonyl]pyrimidin-4-yl}amino)-2,3-dihydroxycyclopentyl]methyl sulfamate]
IC50: 10 to 100 nM
inhibition at 0.111 µM: 81%

NS(=O)(=O)OC[C@H]1C[C@@H](Nc2ncncc2C(=O)c2ccn(Cc3ccc(C(F)(F)F)cc3C(F)(F)F)n2)[C@H](O)[C@@H]1O [Compound I-266, [(1R,2R,3S,4R)-4-{[5-({1-[2,4-bis(trifluoromethyl)benzyl]-1H-pyrazol-3-yl}carbonyl)pyrimidin-4-yl]amino}-2,3-dihydroxycyclopentyl]methyl sulfamate]
IC50: 10 to 100 nM
inhibition at 0.111 µM: 87%

NS(=O)(=O)OC[C@H]1C[C@@H](Nc2ncncc2C(=O)c2ccn(Cc3cccc(Cl)c3)c2)[C@@H](F)[C@@H]1O [Compound I-147, {(1R,2R,3R,4R)-4-[(5-{[1-(3-chlorobenzyl)-1H-pyrrol-3-yl]carbonyl}pyrimidin-4-yl)amino]-3-fluoro-2-hydroxycyclopentyl}methyl sulfamate]
IC50: < 10 nM
inhibition at 0.111 µM: > 99%

NS(=O)(=O)OC[C@H]1C[C@@H](Nc2ccncc2C(=O)c2ccn(Cc3cccc(Br)c3)n2)C[C@@H]1O [Compound I-223, {(1R,2S,4R)-4-[(3-{[1-(3-bromobenzyl)-1H-pyrazol-3-yl]carbonyl}pyridin-4-yl)amino]-2-hydroxycyclopentyl}methyl sulfamate]
IC50: < 10 nM
inhibition at 0.111 µM: 99%

COc1cccc(Cn2ccc(C(=O)c3cncnc3N[C@@H]3C[C@H](COS(N)(=O)=O)[C@@H](O)[C@H]3O)n2)c1 [Compound I-325, {(1R,2R,3S,4R)-2,3-dihydroxy-4-[(5-{[1-(3-methoxybenzyl)-1H-pyrazol-3-yl]carbonyl}pyrimidin-4-yl)amino]cyclopentyl}methyl sulfamate]
IC50: < 10 nM
inhibition at 0.111 µM: 99%

NS(=O)(=O)OC[C@H]1C[C@@H](Nc2ncncc2C(=O)c2ccn(Cc3ccc(Cl)c(Cl)c3)n2)[C@@H](F)[C@@H]1O [Compound I-311, {(1R,2R,3R,4R)-4-[(5-{[1-(3,4-dichlorobenzyl)-1H-pyrazol-3-yl]carbonyl}pyrimidin-4-yl)amino]-3-fluoro-2-hydroxycyclopentyl}methyl sulfamate]
IC50: < 10 nM
inhibition at 0.111 µM: 98%

CCOCCn1ccc(C(=O)c2cncnc2N[C@@H]2C[C@H](COS(N)(=O)=O)[C@@H](O)[C@H]2O)n1 [Compound I-28, {(1R,2R,3S,4R)-4-[(5-{[1-(2-ethoxyethyl)-1H-pyrazol-3-yl]carbonyl}pyrimidin-4-yl)amino]-2,3-dihydroxycyclopentyl}methyl sulfamate]
IC50: 10 to 100 nM
inhibition at 0.111 µM: 78%

CSCn1ccc(C(=O)c2cncnc2N[C@@H]2C[C@H](COS(N)(=O)=O)[C@@H](O)C2)n1 [Compound I-281, [(1R,2S,4R)-2-hydroxy-4-{[5-({1-[(methylsulfanyl)methyl]-1H-pyrazol-3-yl}carbonyl)pyrimidin-4-yl]amino}cyclopentyl]methyl sulfamate]
IC50: 100 to 1000 nM
inhibition at 0.111 µM: 25%

Cc1cc(Cn2ccc(C(=O)c3cncnc3N[C@@H]3C[C@H](COS(N)(=O)=O)[C@@H](O)[C@@H]3F)c2)on1 [Compound I-208, [(1R,2R,3R,4R)-3-fluoro-2-hydroxy-4-{[5-({1-[(3-methylisoxazol-5-yl)methyl]-1H-pyrrol-3-yl}carbonyl)pyrimidin-4-yl]amino)cyolopentyl]methyl sulfomate]
IC50: < 10 nM
inhibition at 0.111 µM: 95%

Cn1nc(Cn2ccc(C(=O)c3cncnc3N[C@@H]3C[C@H](COS(N)(=O)=O)[C@@H](O)C3)c2)cc1C(F)(F)F [Compound I-306, [(1R,2S,4R)-2-hydroxy-4-({5-[(1-{[1-methyl-5-(trifluoromethyl)-1H-pyrazol-3-yl]methyl) 1H pyrrol-3-yl)carbonyl]pyrmidin-4-yl}amino)cyclopentyl]methyl sulfamate]
IC50: < 10 nM
inhibition at 0.111 µM: 99%

NS(=O)(=O)OC[C@H]1C[C@@H](Nc2ncncc2C(=O)c2cc(F)n(Cc3cccc(Br)c3)c2)[C@@H](F)[C@@H]1O [Compound I-44, {(1R,2R,3R,4R)-4-[(5-{[1-(3-Bromobenzyl)-5-fluoro-1H-pyrrol-3-yl]carbonyl}pyrimidin-4-yl)amino]-3-fluoro-2-hydroxycyclopentyl}methyl sulfamate]
IC50: < 10 nM
inhibition at 0.111 µM: 99%

Source: patent publication US9695154B2, “Heteroaryl inhibitors of sumo activating enzyme” (MILLENNIUM PHARMACEUTICALS, INC., priority 2013, dated 2017)
